Measurements published in ChEMBL document CHEMBL1136221, “Analysis of the critical structural determinant(s) of species-selective peroxisome proliferator-activated receptor alpha (PPAR alpha)-activation by phenylpropanoic acid-type PPAR alpha agonists” (Bioorg Med Chem Lett, 2003).
Substitutions are numbered along the chain they refer to. pEC50: −log10 of the molar value.

Key:
Assay type in all cases: cell-based
[1] = tested on: Peroxisome proliferator-activated receptor alpha (Homo sapiens), Q07869 [UNDEFINED MUTATION]; experiment: Ratio of transcriptional activation of I272F mutant compared to wild type PPAR-GAL4 chimeric receptors in CHO-K1 cells
[2] = target: Peroxisome proliferator-activated receptor alpha (Homo sapiens, UniProt Q07869, I272F); experiment: Transcriptional activation activity on human I272F-mutant Peroxisome proliferator activated receptor alpha expressed in CHO-K1 cells
[3] = tested on: Peroxisome proliferator-activated receptor alpha (Homo sapiens), Q07869 [UNDEFINED MUTATION]; experiment: Ratio of transcriptional activation of T279M mutant compared to wild type PPAR-GAL4 chimeric receptors in CHO-K1 cells
[4] = target: T1, Peroxisome proliferator-activated receptor alpha (Homo sapiens, UniProt Q07869); experiment: Transcriptional activation activity on human Peroxisome proliferator activated receptor alpha expressed in CHO-K1 cells
T1 sequence (Q07869 whole entry): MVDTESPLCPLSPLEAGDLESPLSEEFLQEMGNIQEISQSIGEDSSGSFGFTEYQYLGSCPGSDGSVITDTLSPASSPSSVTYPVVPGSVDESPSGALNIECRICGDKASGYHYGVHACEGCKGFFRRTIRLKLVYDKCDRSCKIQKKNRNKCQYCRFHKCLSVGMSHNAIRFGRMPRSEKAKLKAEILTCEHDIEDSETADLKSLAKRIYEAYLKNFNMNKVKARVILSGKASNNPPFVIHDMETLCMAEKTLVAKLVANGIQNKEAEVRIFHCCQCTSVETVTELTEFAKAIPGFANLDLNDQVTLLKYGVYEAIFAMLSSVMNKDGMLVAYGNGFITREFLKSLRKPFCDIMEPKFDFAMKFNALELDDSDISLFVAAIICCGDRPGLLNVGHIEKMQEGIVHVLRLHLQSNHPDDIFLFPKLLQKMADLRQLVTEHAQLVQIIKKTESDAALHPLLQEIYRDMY

[5] = target: Peroxisome proliferator-activated receptor alpha (Homo sapiens, UniProt Q07869, T279M); experiment: Transcriptional activation activity on human T279M-mutant Peroxisome proliferator activated receptor alpha expressed in CHO-K1 cells
[6] = tested on: T2, Peroxisome proliferator-activated receptor alpha (Homo sapiens), Q07869 [I272F]; experiment: Transcriptional activation activity on human I272F-mutant Peroxisome proliferator activated receptor alpha expressed in CHO-K1 cells at 10 uM
T2 sequence (whole entry): T1 sequence (Q07869 whole entry) with I272F

Chain of Peroxisome proliferator-activated receptor alpha (Homo sapiens, UniProt Q07869, I272F) (Q07869 whole entry I272F, the tested form may be a part): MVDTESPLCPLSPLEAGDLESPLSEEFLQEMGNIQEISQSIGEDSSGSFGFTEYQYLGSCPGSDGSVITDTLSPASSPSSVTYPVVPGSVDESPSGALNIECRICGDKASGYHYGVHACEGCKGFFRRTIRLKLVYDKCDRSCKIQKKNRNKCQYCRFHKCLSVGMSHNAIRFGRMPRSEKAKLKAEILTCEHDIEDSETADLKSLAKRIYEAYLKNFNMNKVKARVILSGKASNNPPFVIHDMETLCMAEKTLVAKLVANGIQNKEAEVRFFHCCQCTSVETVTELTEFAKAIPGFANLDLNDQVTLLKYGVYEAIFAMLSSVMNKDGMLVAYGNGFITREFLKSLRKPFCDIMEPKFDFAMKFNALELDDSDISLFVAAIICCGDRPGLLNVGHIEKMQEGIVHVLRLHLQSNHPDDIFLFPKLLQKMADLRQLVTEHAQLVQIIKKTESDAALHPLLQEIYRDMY
Chain of Peroxisome proliferator-activated receptor alpha (Homo sapiens, UniProt Q07869, T279M) (Q07869 whole entry T279M): as the sequence (Q07869 whole entry I272F, the tested form may be a part) above, with F272I, T279M counted along it

Row | SMILES | Ratio [1] | pEC50 [2] | Ratio [3] | pEC50 [4] | pEC50 [5] | inhibition [6] [%]
1 | CC[C@@H](Cc1ccc(OC)c(OCCc2ccc(C(F)(F)F)cc2)c1)C(=O)O | 12.3 | 4.48 | 5.92 | 5.57 | 4.79 | –
2 | CC[C@@H](Cc1ccc(OC)c(C(=O)NCc2ccc(C(F)(F)F)cc2)c1)C(=O)O | – | 5.55 | – | 7.10 | 6.51 | –
3 | CC[C@@H](Cc1ccc(OC)c(C(=O)NCc2ccccc2)c1)C(=O)O | – | – | 3.37 | 5.47 | 4.94 | 30
4 | CC[C@@H](Cc1ccc(OC)c(C(=O)NCc2ccc(Oc3ccc(F)cc3)cc2)c1)C(=O)O | 108 | 6.18 | 2.28 | 9.21 | 7.85 | –
